Source: article PMC3458928, “Co-Factor Binding Confers Substrate Specificity to Xylose Reductase from Debaryomyces hansenii” (PLoS ONE, 2012)
Where “and” joins values, the source holds several entries; their conditions need not be identical. Equal entries are not always repeated. Where two headings read alike, the source gives them in different places.

Columns and labels:
DhXR Y47A mutant = DhXR Y47A mutant (Debaryomyces hansenii, UniProt Q6BLI9, Y47A); assay: biochemical; type: binding; conditions: for reduction in affinity versus wild type: first site
Procedure: (§1) Titrations of DhXR with ligands were examined by monitoring the intrinsic tryptophan fluorescence of DhXR using a Varian spectrofluorometer. Experiments were performed in indicated buffers as mentioned in the text. The excitation wavelength and emission wavelengths for monitoring DhXR-ligand interaction were 292 nm and 345 nm respectively. Slit widths were set to 5 nm for all experiments and PMT voltage was adjusted to get maximum signal for a given protein concentration. All experiments were done at 25.0±1°C. Initial readings of both the protein, Fprotein,0 and buffer, Fbuff,0 were taken, with F0 = Fprotein,0–Fbuff,0 defined as the initial fluorescence of the sample. The sample cuvette was then titrated with aliquots of ligands and mixed, and equilibrated for 3–4 minutes before measurement. Data points from five such measurements were averaged to obtain Fave,i. The relative fluorescence quenching upon sugar binding is defined as Qobs,i = (F0–Fave,i)/F0. All measurements were corrected for dilution, and inner filter effects.
(§2) Binding of ligands to DhXR was analyzed using two site binding model. [drawing 1] (1) where Q1 and Q2 are the fluorescence quenching corresponding to one and two ligands bound, respectively; L is concentration of free ligand in solution; K1,obs and K2,obs are association constants for the binding of the first and the second ligand molecule. Errors were calculated from fitting analysis of two independent experiments.
(§3) We tested the activity of all mutants and activities were normalized to the activity of wild type DhXR with respect to its D-xylose reducing activity.

holo-DhXR [1] = target: T1, holo-DhXR (Debaryomyces hansenii, UniProt Q6BLI9); assay: Steady state kinetics of carbonyl substrate reduction by holo-DhXR (A340, NADPH); type: biochemical; conditions: for Vmax / k cat: 25 °C, pH 7.0, 0.15 mM NADPH, 0.18 µM enzyme; for Km/Kd ratio (net affinity loss): Km of holoenzyme vs Kd of apoenzyme
Procedure: (§4) The xylose reductase activities of recombinant DhXR was determined spectrophotometrically by monitoring the change in A340 upon reduction of NADPH to NADP. The standard assay mixture contained 50 mM KPO4, pH 7.0, 100 mM sugar substrate, 0.3 mM NADPH, 0.18 µM of enzyme. Single point activity studies were performed at 40°C and all reactions were started by the addition of enzyme to a final volume of 0.8 ml (in standard assay condition). […] Errors for the activity assays were calculated from triplicate experiments. The kinetic parameters were determined using a range of substrate concentrations. Here, the reaction was performed at 25°C and assay mixture contained 50 mM KPO4, pH 7.0, 0.15 mM NADPH, 0.18 µM of enzyme and varying substrate concentrations. Steady state kinetics data were fit to Michaelis-Menten model, v = Vmax * [S]/([S]+Km), where Vmax, maximal velocity; Km, Michaelis-Menten constant; S, substrate concentration, and v, initial velocity.
To understand the specificity determining component in catalysis, we studied the steady state kinetics of holo-DhXR towards different carbonyl substrates. […] Therefore, all kinetic data analyzed fitting to Michaelis-Menten model by Non-Linear Least Squares method. (Fig. 4A). Steady state kinetic parameters are also determined for other sugars (table 3, Fig. 4B). […] We compared the Km/Kd ratio as an indicator of net affinity loss for a given substrate (Fig. S5).
In order to further verify that holoenzyme discriminates between substrate and non-substrate sugars, we challenged the catalysis of D-xylose by adding non-substrate sugars during kinetic experiments. […] We studied the kinetics of D-xylose reduction by holo-DhXR in the presence of fixed concentration (∼40 mM) of three sugars (Fig. 4C).

holo-DhXR [2] = target: T1, holo-DhXR; assay: Specific activity of DhXR with 100 mM D-xylose in presence of competing sugars; type: biochemical
Procedure: as §4
(§5) Assays were performed at 100 mM D-xylose and concentrations of competing sugars were varied (25 mM to 400 mM). […] Both DhXR and NADPH (20.0 µM) are pre-incubated and fluorescence signal was monitored until no further change. […] It should be noted that D-xylose is the substrate and is very likely to be reduced soon after binding.

holo-DhXR [3] = target: T1, holo-DhXR; assay: Single point specific activity of holo-DhXR towards different sugars; type: biochemical; conditions: saturated sugar concentration (100 mM), 40 °C
Procedure: as §4

DhXR H109A mutant = DhXR H109A mutant (Debaryomyces hansenii, UniProt Q6BLI9, H109A); assay: biochemical; type: binding
Procedure: as §1, §2, §3

DhXR K76A mutant = DhXR K76A mutant (Debaryomyces hansenii, UniProt Q6BLI9, K76A); assay: biochemical; type: binding
Procedure: as §1, §2, §3

[4] = target: apo-DhXR (wild type xylose reductase) (Debaryomyces hansenii, UniProt Q6BLI9); assay: Tryptophan fluorescence quenching titration, ligand binding to apo-DhXR wild type; conditions: for ratio of first to second intrinsic binding constant: affinity of first vs second ligand molecule
Procedure: as §1, §2
We examined the binding of D-xylose, xylitol, and NADPH to apo-DhXR. Quenching of tryptophan fluorescence upon ligand binding was used as the signal for monitoring the extent of binding. Apo-DhXR was excited at 292 nm and emission of tryptophan fluorescence was scanned between 300–375 nm (Fig. S2). […] Intrinsic site-specific binding constants are estimated from the macroscopic binding constants obtained from fitting by removing the statistical factors as in eq (2). [drawing 2] (2)

DhXR-NADPH complex = assay: Fluorescence titration of pre-formed DhXR-NADPH binary complex; type: binding, Debaryomyces hansenii; conditions: DhXR pre-incubated with 20.0 µM NADPH
Procedure: as §1, §5

DhXR D42A mutant = target: T2, DhXR D42A mutant (Debaryomyces hansenii, UniProt Q6BLI9, D42A); assay: Fluorescence quenching titration, ligand binding to DhXR D42A mutant
T2 sequence (Q6BLI9 1-317 D42A): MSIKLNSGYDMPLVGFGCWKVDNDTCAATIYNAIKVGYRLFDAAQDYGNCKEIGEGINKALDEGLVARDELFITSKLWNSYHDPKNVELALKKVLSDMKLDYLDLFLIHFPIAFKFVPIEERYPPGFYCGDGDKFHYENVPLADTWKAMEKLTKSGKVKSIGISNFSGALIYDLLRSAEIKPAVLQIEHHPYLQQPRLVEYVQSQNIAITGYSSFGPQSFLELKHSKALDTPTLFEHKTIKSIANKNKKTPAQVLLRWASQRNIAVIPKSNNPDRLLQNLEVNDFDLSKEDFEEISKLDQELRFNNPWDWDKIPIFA
Procedure: as §1, §2, §3

DhXR N305A mutant = target: T3, DhXR N305A mutant (Debaryomyces hansenii, UniProt Q6BLI9, N305A); assay: Fluorescence quenching titration, ligand binding to DhXR N305A mutant
T3 sequence (Q6BLI9 1-317 N305A): T2 sequence (Q6BLI9 1-317 D42A)
Procedure: as §1, §2, §3

DhXR D10A mutant = target: T4, DhXR D10A mutant (Debaryomyces hansenii, UniProt Q6BLI9, D10A); assay: Fluorescence quenching titration, ligand binding to DhXR D10A mutant
T4 sequence (Q6BLI9 1-317 D10A): T2 sequence (Q6BLI9 1-317 D42A)
Procedure: as §1, §2, §3

[5] = 25 mM sugar added in 100 mM D-xylose reaction
[6] = 100 mM sugar added in 100 mM D-xylose reaction
[7] = 400 mM sugar added in 100 mM D-xylose reaction
[8] = Kd1,int, wild type apo-DhXR, first site, 25 °C
[9] = read-out: Kd2,int, wild type apo-DhXR, second site, 25 °C

SMILES	reduction in affinity versus wild type (DhXR Y47A mutant; Y47A)	Vmax (holo-DhXR [1]) [nmol/min]	k cat (holo-DhXR [1]) [s⁻¹]	Specific activity (holo-DhXR [2]; [5]) [nmol/min]	Specific activity (holo-DhXR [2]; [6]) [nmol/min]	Specific activity (holo-DhXR [2]; [7]) [nmol/min]	reduction of holoenzyme activity compared with D-xylose (holo-DhXR [3])	Kd (DhXR H109A mutant) [mM]	Kd (DhXR K76A mutant) [mM]	Kd (DhXR Y47A mutant) [mM]	Kd [4, 8]	Kd [4, 9]	Km/Kd ratio (net affinity loss) (holo-DhXR [1])	binding to DhXR-NADPH complex (fluorescence signal) (DhXR-NADPH complex)	ratio of first to second intrinsic binding constant [4]	K1,int (intrinsic association constant, first ligand) ([4]; wild type apo-DhXR)	Kd (DhXR D42A mutant) [mM]	Kd (DhXR N305A mutant) [mM]	Kd (DhXR D10A mutant) [mM]	also measured
O=C[C@H](O)[C@@H](O)[C@@H](O)[C@H](O)CO [D-galactose]	8–10 fold	136.5 ± 9.4	15.2	76.8 ± 3.8	84.4 ± 3.3	99.3 ± 4.3	50%	–	–	–	–	–	–	–	–	–	–	–	–	–
O=C[C@H](O)[C@H](O)[C@H](O)CO [D-ribose]	~2 fold	93.1 ± 3.2	10.3	77.5 ± 3.6	84.7 ± 3.8	78.5 ± 3.1	–	13 ± 3	10 ± 2	12 ± 1	~10.5 mM and 10.5 mM	83 ± 7 mM	12–15 fold	–	–	–	–	–	–	reduction in affinity versus wild type (DhXR K76A mutant; K76A): 2 fold; fold less affinity than D-xylose ([4]; first site, apo-DhXR): ~2 fold
O=C[C@H](O)[C@@H](O)[C@H](O)CO [D-xylose]	–	–	–	–	–	–	–	13.3 ± 2	12.8 ± 2	12.9 ± 2	~5.3 mM and 5.3 mM	17 mM and 17.2 mM	12–15 fold	showed further quenching of fluorescence	~4	1.9±0.6×10^2 M^−1	5.1 ± 0.6	6.4 ± 2	6.7 ± 1	Hill coefficient, nH ([4]; from logarithmic (Hill) plot): ~0.68; K2,int (intrinsic association constant, second ligand) ([4]; wild type apo-DhXR): 5.8±0.1×10^1 M^−1; Kd (DhXR D42A mutant; read-out: Kd2,int, D42A, second site): 47.6 ± 18 mM; Specific activity (holo-DhXR [2]; 100 mM D-xylose alone, 0 mM competing sugar): 72.5 ± 2.4 nmol/min
C[C@H](O)[C@H](O)[C@@H](O)[C@@H](O)C=O [L-rhamnose]	–	–	–	76.2 ± 6.4	73.4 ± 2.8	68.7 ± 3.4	more than 95%	–	–	–	–	–	–	cannot bind	–	–	–	–	–	Kd ([4]; wild type apo-DhXR, first site, 25 °C, read-out: Kd1,int): 14 ± 3 mM; Kd ([4]; wild type apo-DhXR, second site, 25 °C, read-out: Kd2,int): 33 ± 13 mM; catalysis in steady state kinetic curves (in words) (holo-DhXR [1]; comparison of kinetic curves of different sugars): very low activity; Km/Kd ratio (net affinity loss), predicted minimum (holo-DhXR [1]; could not be estimated due to insignificant catalysis, minimum predicted): > 500 fold
NC(=O)C1=CN([C@@H]2O[C@H](COP(=O)(O)OP(=O)(O)OC[C@H]3O[C@@H](n4cnc5c(N)ncnc54)[C@H](OP(=O)(O)O)[C@@H]3O)[C@@H](O)[C@H]2O)C=CC1 [NADPH, Nicotinamide adenine dinucleotide phosphate]	–	–	–	–	–	–	–	0.0055 ± 0.002	0.01 ± 0.0006	0.01 ± 0.0007	–	–	–	–	~4	8.9±0.4×10^5 M^−1	0.01 ± 0.0005	0.0083 ± 0.002	0.0033 ± 0.0002	Kd (DhXR H109A mutant; read-out: Kd2,int, H109A, second site, NADPH): 0.083 ± 0.035 mM; Kd (DhXR Y47A mutant; read-out: Kd2,int, Y47A, second site, NADPH): 0.192 ± 0.026 mM; Kd ([4]; Kd1,int, wild type apo-DhXR, first site, NADPH): 0.0011 ± 0.0002 mM; affinity of cofactor relative to substrate affinity ([4]; apoenzyme): ~4700 times; Kd ([4]; read-out: Kd2,int, wild type apo-DhXR, second site, NADPH): 0.0039 ± 0.0002 mM; Kd (DhXR N305A mutant; read-out: Kd2,int, N305A, second site, NADPH): 0.09 ± 0.025 mM; Kd (DhXR D10A mutant; read-out: Kd2,int, D10A, second site, NADPH): 0.01 ± 0.003 mM
